From patent US10941152B2, “Pyrazole compounds as modulators of FSHR and uses thereof” (TOCOPHERX, INC., priority 2014, dated 2021)
Blank lines part the entries; values can stand above or below the compound they belong to.

Legend:
[1] = biological target: T1, follicle-stimulating hormone (FSH) receptor (Rattus norvegicus, UniProt P20395); assay: Rat granulosa EC50 FSH (Assay B); assay type: cell-based
T1 construct: endogenous in cells; host or cells: rat granulosa cells
T1 sequence (P20395 18-692): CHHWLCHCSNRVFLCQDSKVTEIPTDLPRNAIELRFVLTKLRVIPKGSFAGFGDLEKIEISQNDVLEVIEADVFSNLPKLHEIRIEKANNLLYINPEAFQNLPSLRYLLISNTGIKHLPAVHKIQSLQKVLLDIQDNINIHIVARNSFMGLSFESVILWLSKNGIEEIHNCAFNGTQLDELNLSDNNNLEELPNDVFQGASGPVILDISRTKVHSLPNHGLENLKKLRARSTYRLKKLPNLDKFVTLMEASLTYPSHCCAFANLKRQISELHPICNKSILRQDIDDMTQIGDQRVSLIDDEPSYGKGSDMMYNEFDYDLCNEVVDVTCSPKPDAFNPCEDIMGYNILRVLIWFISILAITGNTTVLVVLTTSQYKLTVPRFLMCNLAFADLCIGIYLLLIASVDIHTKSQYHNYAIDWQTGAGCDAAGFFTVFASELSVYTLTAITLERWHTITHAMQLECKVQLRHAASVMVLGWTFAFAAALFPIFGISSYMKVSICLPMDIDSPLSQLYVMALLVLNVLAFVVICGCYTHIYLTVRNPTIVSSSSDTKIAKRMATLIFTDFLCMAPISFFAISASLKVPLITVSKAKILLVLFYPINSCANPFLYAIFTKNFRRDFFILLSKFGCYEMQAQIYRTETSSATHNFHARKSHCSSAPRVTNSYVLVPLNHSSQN
Protocol: Example 25. Rat granulosa EC50 FSH (Assay B)
The assay was performed pursuant to the teaching of Yanofsky et al. (2006) Allosteric activation of the follicle-stimulating hormone (FSH) receptor by selective, nonpeptide agonists (JBC 281(19): 13226-13233, which is incorporated by reference in the disclosure of the invention).

[2] = biological target: T2, FSHR (Homo sapiens, UniProt P23945); assay: EC50 of cyclic AMP production in CHO FSHR cells + EC20 FSH (Assay A); assay type: cell-based; settings: cyclic AMP production in CHO FSHR cells + EC20 FSH (0.265 pM), HTRF
T2 construct: expressed in transfected cells; host or cells: CHO (Cho-FSHR-LUC-1-1-43)
T2 sequence (P23945 18-695): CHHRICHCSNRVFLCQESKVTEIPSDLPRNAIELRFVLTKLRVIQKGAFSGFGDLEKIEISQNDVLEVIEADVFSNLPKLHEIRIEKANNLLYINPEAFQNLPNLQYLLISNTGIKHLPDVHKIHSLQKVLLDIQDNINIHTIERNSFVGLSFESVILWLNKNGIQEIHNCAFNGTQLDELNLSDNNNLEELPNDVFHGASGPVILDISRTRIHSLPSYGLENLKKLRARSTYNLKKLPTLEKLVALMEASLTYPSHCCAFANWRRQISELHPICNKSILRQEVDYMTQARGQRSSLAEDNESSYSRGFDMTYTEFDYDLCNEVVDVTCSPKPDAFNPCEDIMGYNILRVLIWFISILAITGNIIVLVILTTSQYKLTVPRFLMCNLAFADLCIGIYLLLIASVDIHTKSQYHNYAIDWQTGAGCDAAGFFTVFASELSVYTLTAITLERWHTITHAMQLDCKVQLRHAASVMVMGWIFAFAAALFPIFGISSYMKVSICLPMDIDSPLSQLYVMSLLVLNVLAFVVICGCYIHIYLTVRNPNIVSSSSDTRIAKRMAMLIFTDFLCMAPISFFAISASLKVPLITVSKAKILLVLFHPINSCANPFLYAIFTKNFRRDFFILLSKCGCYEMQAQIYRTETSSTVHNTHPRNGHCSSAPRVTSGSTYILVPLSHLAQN
Protocol: Example 24. EC50 of cyclic AMP production in CHO FSHR cells+EC20 FSH (Assay A)
2500 Cho-FSHR-LUC-1-1-43 cells were plated per well in 5 al of phenol red free DMEM/F12+1% FBS. Cells were plated in 384 well, solid white low volume plates (Greiner 784075) by Multidrop. Cells were assayed by adding 100 al of 2×EC20 FSH/IBMX in DMEM/F12+0.1% BSA) by Multidrop to 2 al of test compound stamped in 384 well plates (compounds are diluted 1:50). The final FSH concentration was 0.265 pM, and the final IBMX concentration was 200 μM. The compound plate map was as follows: Column 1: 2 μl of DMSO; Column 2: 2 μl of DMSO; Columns 3-12 and 13-24: 2 μl of test compound, diluted 1:4 in 100% DMSO, or 2 μl of FSH, diluted 1:4 in DMEM/F12+0.1% BSA. The starting concentration for FSH was 50 nM (final concentration was 0.5 nM). Furthermore, Column 23 contained 2 μl of EC100 FSH reference (100×) (diluted in DMEM/F12+0.1% BSA) at a final concentration of 0.5 nM, and Column 24 contained 2 μl of 1 mM AS707664/2 reference compound 2. 5 μl of compound+EC20 FSH mixture were transferred to cell plates (1:2 dilution into 5 μl of cell media) The plates were incubated at 37° C. for 1 h. 10 μl of mixed HTRF (CisBio #62AM4PEC) reagents were added per well and incubated at room temperature for 1 h. The plates were read on Envision using the cAMP HTRF—low volume 384 well protocol. The readout was the calculated fluorescence ratio (665 nm/620 nm). Values given in percent (%) indicate the percental effect (response) at a certain concentration of agonist relative to the maximum response of the FSH standard.

EC50 [1]: 10 to 100 nM
EC50 [2]: < 10 nM
SMILES: COc1cc2c(cc1-c1cncc(C(N)=O)c1C)-c1c(c(C(=O)N(C)C(C)(C)C)nn1-c1cc(Cl)cc(Cl)c1)CO2 [Compound 116, N-tert-butyl-8-(5-carbamoyl-4-methylpyridin-3-yl)-1-(3,5-dichlorophenyl)-7-methoxy-N-methyl-1,4-dihydrochromeno[4,3-c]pyrazole-3-carboxamide]

EC50 [1]: 10 to 100 nM
EC50 [2]: < 10 nM
SMILES: COc1cc2c(cc1-c1cncc(NC(N)=O)c1)-c1c(c(C(=O)N(C)C(C)(C)C)nn1-c1cc(Cl)cc(Cl)c1)CO2 [Compound 183, N-tert-butyl-1-(3,5-dichlorophenyl)-7-methoxy-N-methyl-8-(5-ureidopyridin-3-yl)-1,4-dihydrochromeno[4,3-c]pyrazole-3-carboxamide]

EC50 [1]: 10 to 100 nM
EC50 [2]: < 10 nM
SMILES: COc1cc2c(cc1-c1ccccn1)-c1c(c(C(=O)N3CCC(O)CC3(C)C)nn1-c1cc(Cl)cc(Cl)c1)CO2 (centres unmarked) [Compound 102, (1-(3,5-dichlorophenyl)-7-methoxy-8-(pyridin-2-yl)-1,4-dihydrochromeno[4,3-c]pyrazol-3-yl)(4-hydroxy-2,2-dimethylpiperidin-1-yl)methanone]

EC50 [1]: 101 to 500 nM
EC50 [2]: < 10 nM
SMILES: COc1cc2c(cc1-c1ccccc1C(N)=O)-c1c(c(C(=O)N(C)C(C)(C)C)nn1-c1cc(Cl)cc(Cl)c1)CO2 [Compound 98, N-tert-butyl-8-(2-carbamoylphenyl)-1-(3,5-dichlorophenyl)-7-methoxy-N-methyl-1,4-dihydrochromeno[4,3-c]pyrazole-3-carboxamide]

EC50 [2]: 10 to 100 nM
SMILES: COc1cc2c(cc1C#CC(N)=O)-c1c(c(C(=O)N(C)C(C)(C)C)nn1-c1ccsc1)CO2 [Compound 186, 8-(3-amino-3-oxoprop-1-ynyl)-N-tert-butyl-7-methoxy-N-methyl-1-(thiophen-3-yl)-1,4-dihydrochromeno[4,3-c]pyrazole-3-carboxamide]

EC50 [2]: 10 to 100 nM
SMILES: COc1cc2c(cc1-c1ccn(C)n1)-c1c(c(C(=O)N3CCC(S(C)(=O)=O)CC3(C)C)nn1-c1ccsc1)CO2 (centres unmarked) [Compound 129, (2,2-dimethyl-4-(methylsulfonyl)piperidin-1-yl)(7-methoxy-8-(1-methyl-1H-pyrazol-3-yl)-1-(thiophen-3-yl)-1,4-dihydrochromeno[4,3-c]pyrazol-3-yl)methanone]

EC50 [2]: 10 to 100 nM
SMILES: COc1cc2c(cc1-c1ccc(F)c(C(=O)O)c1)-c1c(c(C(=O)N(C)C(C)(C)C)nn1-c1cc(Cl)cc(Cl)c1)CO2 [Compound 180]

The next lines start with the compound.

SMILES: COc1cc2c(cc1-c1cccc(O)c1)-c1c(c(C(=O)N(C)C(C)(C)C)nn1-c1cc(Cl)cc(Cl)c1)CO2 [Compound 22, N-tert-butyl-1-(3,5-dichlorophenyl)-8-(3-hydroxyphenyl)-7-methoxy-N-methyl-1,4-dihydrochromeno[4,3-c]pyrazole-3-carboxamide]
EC50 [1]: 10 to 100 nM
EC50 [2]: < 10 nM

SMILES: COc1cc2c(cc1-c1ccn(C)n1)-c1c(c(C(=O)N(C)C(C)(C)C)nn1-c1cc(C)cc(Cl)c1)CO2 [Compound 30, N-tert-butyl-1-(3-chloro-5-methylphenyl)-7-methoxy-N-methyl-8-(1-methyl-1H-pyrazol-3-yl)-1,4-dihydrochromeno[4,3-c]pyrazole-3-carboxamide]
EC50 [1]: 101 to 500 nM
EC50 [2]: 101 to 500 nM

SMILES: COc1cc(F)cc(-n2nc(C(=O)N3CCOCC3(C)C)c3c2-c2cc(-c4cnn(CC(=O)O)c4)c(OC)cc2OC3)c1 [Compound 89, 2-(4-(3-(3,3-dimethylmorpholine-4-carbonyl)-1-(3-fluoro-5-methoxyphenyl)-7-methoxy-1,4-dihydrochromeno[4,3-c]pyrazol-8-yl)-1H-pyrazol-1-yl)acetic acid]
EC50 [1]: 101 to 500 nM
EC50 [2]: < 10 nM

SMILES: COc1cc2c(cc1-c1cc(C(N)=O)ncc1F)-c1c(c(C(=O)N(C)C(C)(C)C)nn1-c1cc(F)cc(F)c1)CO2 [Compound 70, N-tert-butyl-8-(2-carbamoyl-5-fluoropyridin-4-yl)-1-(3,5-difluorophenyl)-7-methoxy-N-methyl-1,4-dihydrochromeno[4,3-c]pyrazole-3-carboxamide]
EC50 [1]: 10 to 100 nM
EC50 [2]: < 10 nM

SMILES: COc1cc2c(cc1-c1cccnc1F)-c1c(c(C(=O)N(C)C(C)(C)C)nn1-c1cc(Cl)cc(Cl)c1)CO2 [Compound 3, N-tert-butyl-1-(3,5-dichlorophenyl)-8-(2-fluoropyridin-3-yl)-7-methoxy-N-methyl-1,4-dihydrochromeno[4,3-c]pyrazole-3-carboxamide]
EC50 [1]: 10 to 100 nM
EC50 [2]: < 10 nM

SMILES: COc1cc2c(cc1-c1ccc(N)nc1)-c1c(c(C(=O)N(C)C(C)(C)C)nn1-c1cc(Cl)cc(Cl)c1)CO2 [Compound 16, 8-(6-aminopyridin-3-yl)-N-tert-butyl-1-(3,5-dichlorophenyl)-7-methoxy-N-methyl-1,4-dihydrochromeno[4,3-c]pyrazole-3-carboxamide]
EC50 [1]: 101 to 500 nM
EC50 [2]: < 10 nM

SMILES: COc1cc2c(cc1-c1ccn(C)n1)-c1c(c(C(=O)N3CCC(O)CC3(C)C)nn1-c1cc(Cl)cc(Cl)c1)CO2 (centres unmarked) [Compound 7, (1-(3,5-dichlorophenyl)-7-methoxy-8-(1-methyl-1H-pyrazol-3-yl)-1,4-dihydrochromeno[4,3-c]pyrazol-3-yl)(4-hydroxy-2,2-dimethylpiperidin-1-yl)methanone]
EC50 [1]: 101 to 500 nM
EC50 [2]: 10 to 100 nM

SMILES: COc1cc2c(cc1-c1cnn(CC(=O)O)c1)-c1c(c(C(=O)N3CCOCC3(C)C)nn1-c1cc(F)cc(Cl)c1)CO2 [Compound 84, 2-(4-(1-(3-chloro-5-fluorophenyl)-3-(3,3-dimethylmorpholine-4-carbonyl)-7-methoxy-1,4-dihydrochromeno[4,3-c]pyrazol-8-yl)-1H-pyrazol-1-yl)acetic acid]
EC50 [1]: 101 to 500 nM
EC50 [2]: 10 to 100 nM

SMILES: COc1cc(Cl)cc(-n2nc(C(=O)N(C)C(C)(C)C)c3c2-c2cc(-c4cncc(C#N)c4)c(OC)cc2OC3)c1 [Compound 35, N-tert-butyl-1-(3-chloro-5-methoxyphenyl)-8-(5-cyanopyridin-3-yl)-7-methoxy-N-methyl-1,4-dihydrochromeno[4,3-c]pyrazole-3-carboxamide]
EC50 [2]: < 10 nM

SMILES: COc1cc2c(cc1-c1cnoc1C)-c1c(c(C(=O)N(C)C(C)(C)C)nn1-c1cc(Cl)cc(Cl)c1)CO2 [Compound 15, N-tert-butyl-1-(3,5-dichlorophenyl)-7-methoxy-N-methyl-8-(5-methylisoxazol-4-yl)-1,4-dihydrochromeno[4,3-c]pyrazole-3-carboxamide]
EC50 [2]: < 10 nM
